Assay results from ChEMBL document CHEMBL1150212, “Antitumor agents, 129. Tannins and related compounds as selective cytotoxic agents” (1992).

Legend:
Assay type in all cases: functional
Details in all cases: read-out: ED50 (the source's name)
A549 = assay: Cytotoxicity against human A549 cells by tetrazolium salt-based colorimetric assay
HCT-8 = assay: Cytotoxicity against human HCT8 cells by tetrazolium salt-based colorimetric assay
KB = assay: Cytotoxicity against human KB cells by tetrazolium salt-based colorimetric assay
TE-671 = assay: Cytotoxicity against human TE671 cells by tetrazolium salt-based colorimetric assay
[1] = Cytotoxicity against human […] cells by tetrazolium salt-based colorimetric assay

Compound	EC50 (A549) [µg/mL]	EC50 (HCT-8) [µg/mL]	EC50 (KB) [µg/mL]	EC50 (TE-671) [µg/mL]	EC50 [1] [µg/mL]
O=C1OC[C@H]2O[C@@H](O)[C@H](O)[C@@H](O)[C@@H]2OC(=O)c2cc(O)c(O)c(O)c2-c2c(O)c(O)c3oc(=O)c4c(c(O)c(O)c5oc(=O)c2c3c54)-c2c1cc(O)c(O)c2O [PUNICALIN]	> 10	> 10	> 10	> 10	> 10
CC1(C)CC[C@]2(C(=O)O[C@@H]3O[C@H](CO)[C@@H](O)[C@H](O)[C@H]3O)CC[C@]3(C)C(=CC[C@@H]4[C@@]5(C)C[C@@H](O)[C@@H]6OC(=O)c7cc(O)c(O)c(O)c7-c7c(cc(O)c(O)c7O)C(=O)OC[C@@]6(CO)[C@@H]5CC[C@]43C)[C@@H]2C1 [CASTANOPSININ A]	> 10	> 10	> 10	> 10	> 10
O=C(O[C@@H]1O[C@H](CO)[C@@H](O)[C@H](O)[C@H]1O)c1cc(O)c(O)c(O)c1	> 10	> 10	> 10	> 10	> 10
O=C1O[C@H]2[C@H](O)[C@@H](OC(=O)c3cc(O)c(O)c4c3[C@@H]3C1=CC(=O)C(O)(O)C3(O)O4)[C@H](OC(=O)c1cc(O)c(O)c(O)c1)O[C@@H]2CO (stereo not given in full) [FUROSIN]	> 10	> 10	> 10	> 10	0.67
O=C(O[C@@H]1O[C@@H]2COC(=O)c3cc(O)c(O)c(O)c3-c3c(cc(O)c(O)c3O)C(=O)O[C@H]2[C@H](OC(=O)c2cc(O)c(O)c(O)c2)[C@H]1OC(=O)c1cc(O)c(O)c(O)c1)c1cc(O)c(O)c(O)c1 [EUGENIIN]	> 10	> 10	> 10	> 10	2.74
Oc1cc(O)c2c(c1)O[C@H](c1ccc(O)c(O)c1)[C@@H](O)C2 [CIANIDANOL]	> 10	> 10	> 10	> 10	> 10
O=C(OC[C@H]1O[C@@H](O)[C@H](OC(=O)c2cc(O)c(O)c(O)c2)[C@@H](OC(=O)c2cc(O)c(O)c(O)c2)[C@@H]1OC(=O)c1cc(O)c(O)c(O)c1)c1cc(O)c(O)c(O)c1	> 10	> 10	> 10	> 10	> 10
O=C(O)C1=C[C@@H](O)[C@@H](O)[C@H](OC(=O)c2cc(O)c(O)c(OC(=O)c3cc(O)c(O)c(O)c3)c2)C1	> 10	> 10	> 10	> 10	> 10
O=C1O[C@H]2[C@H](OC(=O)c3cc(O)c(O)c(O)c3)[C@@H](OC(=O)c3cc(O)c(O)c4c3[C@@H]3C1=CC(=O)C(O)(O)C3(O)O4)[C@H](OC(=O)c1cc(O)c(O)c(O)c1)O[C@@H]2COC(=O)c1cc(O)c(O)c(O)c1 (stereo not given in full) [TERCHEBIN]	> 10	> 10	> 10	> 10	> 10
O=C1O[C@@H]2[C@@H](OC(=O)c3cc(O)c(O)c(O)c3-c3c1cc(O)c(O)c3O)[C@H](O)O[C@@H]1COC(=O)c3cc(O)c(O)c(O)c3-c3c(O)c(O)c4oc(=O)c5c(c(O)c(O)c6oc(=O)c3c4c65)-c3c(cc(O)c(O)c3O)C(=O)O[C@@H]21 [PUNICALAGIN]	> 10	> 10	> 10	> 10	> 10
Oc1cc(O)c2c(c1)O[C@@]1(c3ccc(O)c(O)c3)Oc3cc(O)c4c(c3[C@@H]2[C@H]1O)O[C@H](c1ccc(O)c(O)c1)[C@H](O)[C@H]4c1c(O)cc(O)c2c1O[C@H](c1ccc(O)c(O)c1)[C@H](O)C2 [CINNAMTANNIN B1]	> 10	> 10	> 10	> 10	3.57
O=C(OC[C@H]1OC(O)[C@@](O)(COC(=O)c2cc(O)c(O)c(O)c2)[C@@H]1O)c1cc(O)c(O)c(O)c1 (stereo not given in full) [HAMAMELITANNIN]	> 10	> 10	> 10	> 10	> 10
Oc1cc(O)c2c(c1)O[C@H](c1ccc(O)c(O)c1)[C@H](O)[C@H]2c1c(O)cc(O)c2c1O[C@H](c1ccc(O)c(O)c1)[C@H](O)C2 [PROCYANIDIN B2]	> 10	> 10	> 10	> 10	> 10
O=C1OC[C@H]2OC(=O)c3cc(O)c(O)c(O)c3-c3c(O)c(O)c(O)c4c3C(=O)O[C@H]([C@@H]3OC(=O)c5c-4c(O)c(O)c(O)c5[C@@H]3c3c(O)cc(O)c4c3O[C@H](c3ccc(O)c(O)c3)[C@@H](O)C4)[C@H]2OC(=O)c2cc(O)c(O)c(O)c2-c2c1cc(O)c(O)c2O [ACUTISSIMIN A]	> 10	> 10	> 10	> 10	0.61
O=C1O[C@H]2[C@@H]3OC(=O)c4cc(O)c(O)c(O)c4-c4c(cc(O)c(O)c4O)C(=O)OC[C@H]2O[C@@H](OC(=O)c2cc(O)c(O)c(O)c2)[C@@H]3OC(=O)c2cc(O)c(O)c3c2[C@@H]2C1=CC(=O)[C@](O)(O3)C2(O)O [GERANIIN]	> 10	> 10	> 10	> 10	0.35
Oc1cc(O)c2c(c1)O[C@H](c1ccc(O)c(O)c1)[C@H](O)[C@H]2c1c(O)cc(O)c2c1O[C@H](c1ccc(O)c(O)c1)[C@H](O)[C@H]2c1c(O)cc(O)c2c1O[C@H](c1ccc(O)c(O)c1)[C@H](O)C2 [PROCYANIDIN C1]	> 10	> 10	> 10	> 10	> 10
O=C1OC[C@H]2OC(=O)c3cc(O)c(O)c(O)c3-c3c(O)c(O)c(O)c4c3C(=O)O[C@H]([C@H]3OC(=O)c5c-4c(O)c(O)c(O)c5[C@H]3O)[C@@H]2OC(=O)c2cc(O)c(O)c(O)c2-c2c1cc(O)c(O)c2O [CASTALAGIN]	> 10	> 10	> 10	> 10	0.79
O=C(O)C[C@@H]1C(=O)O[C@H]2[C@@H]3OC(=O)c4cc(O)c(O)c(O)c4-c4c(cc(O)c(O)c4O)C(=O)OC[C@H]2O[C@@H](OC(=O)c2cc(O)c(O)c(O)c2)[C@@H]3OC(=O)c2cc(O)c(O)c3c2[C@H]1[C@H](O)C(=O)O3 [CHEBULAGIC ACID]	> 10	> 10	> 10	> 10	0.8
CC1(C)CC[C@]2(C(=O)O)CC[C@]3(C)C(=CC[C@@H]4[C@@]5(C)C[C@@H](O)[C@@H]6OC(=O)c7cc(O)c(O)c(O)c7-c7c(cc(O)c(O)c7O)C(=O)OC[C@@]6(CO)[C@@H]5CC[C@]43C)[C@@H]2C1 [CASTANOPSINIIN A]	> 10	> 10	> 10	> 10	> 10
O=C(O[C@H]1[C@H](O)C[C@](O)(C(=O)O)C[C@H]1O)c1cc(O)c(O)c(O)c1	> 10	> 10	> 10	> 10	> 10
O=C(OC[C@H]1OC(O)[C@@](O)(COC(=O)c2cc(O)c(O)c(O)c2)[C@@H]1OC(=O)c1cc(O)c(O)c(O)c1)c1cc(O)c(O)c(O)c1 (stereo not given in full)	> 10	> 10	> 10	> 10	> 10
